How the values were obtained:
[1] = system: Human immunodeficiency virus 1; assay: Antiviral activity against HIV1 harboring Y181C mutant infected in MT4 cells; format: functional, organism-based; settings: Human immunodeficiency virus 1, MT4
[2] = system: Human immunodeficiency virus 1; assay: microbe, parasite or virus in culture; settings: Human immunodeficiency virus 1, RES056, MT4
Description: Antiviral activity against HIV1 RES056 infected in MT-4 cells assessed as viral induced cytopathic effect by MTT assay

[3] = system: Human immunodeficiency virus 1; assay: Potency index, ratio of etravirine EC50 to test compound EC50 for antiviral activity against HIV1 IIIB; format: functional
[4] = AUCt in Sprague-Dawley rat at 2 mg/kg, iv; format: ADME, organism-based; settings: in vivo
[5] = system: Human immunodeficiency virus 1; assay: Antiviral activity against HIV1 harboring E138K mutant infected in MT4 cells; format: functional, organism-based; settings: Human immunodeficiency virus 1, MT4
[6] = system: Human immunodeficiency virus 1; assay: Potency index, ratio of efavirenz EC50 to test compound EC50 for antiviral activity against HIV1 IIIB; format: functional
[7] = system: Human immunodeficiency virus 1; assay: microbe, parasite or virus in culture; settings: Human immunodeficiency virus 1, IIIB, MT4
Description: Antiviral activity against HIV1 IIIB infected in MT-4 cells assessed as viral induced cytopathic effect by MTT assay

[8] = Selectivity index, ratio of CC50 for human MT4 cells to EC50 for antiviral activity against HIV IIIB
Cytochrome P450 3A4 = Cytochrome P450 3A4 (Homo sapiens, UniProt P08684); assay: Inhibition of CYP3A4 (unknown origin); format: ADME
[9] = Half life in Sprague-Dawley rat at 2 mg/kg, iv; format: ADME, organism-based; settings: in vivo
[10] = system: Human immunodeficiency virus 1; assay: Antiviral activity against HIV1 harboring L100I mutant infected in MT4 cells; format: functional, organism-based; settings: Human immunodeficiency virus 1, MT4
[11] = system: Human immunodeficiency virus 1; assay: Potency index, ratio of nevirapine EC50 to test compound EC50 for antiviral activity against HIV1 harboring K103 N mutant; format: functional
[12] = AUCinfinity in Sprague-Dawley rat at 2 mg/kg, iv; format: ADME, organism-based; settings: in vivo
Cytochrome P450 2D6 = Cytochrome P450 2D6 (Homo sapiens, UniProt P10635); assay: Inhibition of CYP2D6 (unknown origin); format: ADME
[13] = system: Human immunodeficiency virus 1; assay: Potency index, ratio of etravirine EC50 to test compound EC50 for antiviral activity against HIV1 harboring K103 N mutant; format: functional
[14] = Cytotoxicity against human MT4 cells assessed as reduction in cell viability by MTT assay; format: toxicity, cell-based
[15] = system: Human immunodeficiency virus 1; assay: Potency index, ratio of (E)-3-[3,5-dimethyl-4-[2-[4-[(4-methylsulfonylpiperazin-1-yl)methyl]anilino]pyrimidin-4-yl]oxy-phenyl]prop-2-enenitrile EC50 to test compound EC50 for antiviral activity against HIV1 harboring F227L/V106A double mutant; format: functional
[16] = Volume of distribution in Sprague-Dawley rat at 2 mg/kg, iv; format: ADME, organism-based; settings: in vivo
[17] = system: Human immunodeficiency virus 1; assay: Potency index, ratio of nevirapine EC50 to test compound EC50 for antiviral activity against HIV1 IIIB; format: functional
[18] = system: Human immunodeficiency virus 1; assay: Potency index, ratio of etravirine EC50 to test compound EC50 for antiviral activity against HIV1 harboring E138K mutant; format: functional
[19] = system: Human immunodeficiency virus 1; assay: Potency index, ratio of efavirenz EC50 to test compound EC50 for antiviral activity against HIV1 harboring K103 N mutant; format: functional
[20] = system: Human immunodeficiency virus 1; assay: Potency index, ratio of (E)-3-[3,5-dimethyl-4-[2-[4-[(4-methylsulfonylpiperazin-1-yl)methyl]anilino]pyrimidin-4-yl]oxy-phenyl]prop-2-enenitrile EC50 to test compound EC50 for antiviral activity against HIV1 harboring K103 N mutant; format: functional
[21] = system: Human immunodeficiency virus 1; assay: Potency index, ratio of zidovudine EC50 to test compound EC50 for antiviral activity against HIV1 IIIB; format: functional
Cytochrome P450 2C9 = Cytochrome P450 2C9 (Homo sapiens, UniProt P11712); assay: Inhibition of CYP2C9 (unknown origin); format: ADME
Cytochrome P450 2C19 = Cytochrome P450 2C19 (Homo sapiens, UniProt P33261); assay: Inhibition of CYP2C19 (unknown origin); format: ADME
[22] = system: Human immunodeficiency virus 1; assay: Antiviral activity against HIV1 harboring F227L/V106A double mutant infected in MT4 cells; format: functional, organism-based; settings: Human immunodeficiency virus 1, MT4
[23] = Clearance in Sprague-Dawley rat at 2 mg/kg, iv; format: ADME, organism-based; settings: in vivo
[24] = system: Human immunodeficiency virus 1; assay: Antiviral activity against HIV1 harboring K103N mutant infected in MT4 cells; format: functional, organism-based; settings: Human immunodeficiency virus 1, MT4
[25] = system: Human immunodeficiency virus 1; assay: Potency index, ratio of efavirenz EC50 to test compound EC50 for antiviral activity against HIV1 harboring F227L/V106A double mutant; format: functional
Cytochrome P450 1A2 = biological target: T1, Cytochrome P450 1A2 (Homo sapiens, UniProt P05177); assay: Inhibition of CYP1A2 (unknown origin); format: ADME
T1 sequence (P05177 whole entry): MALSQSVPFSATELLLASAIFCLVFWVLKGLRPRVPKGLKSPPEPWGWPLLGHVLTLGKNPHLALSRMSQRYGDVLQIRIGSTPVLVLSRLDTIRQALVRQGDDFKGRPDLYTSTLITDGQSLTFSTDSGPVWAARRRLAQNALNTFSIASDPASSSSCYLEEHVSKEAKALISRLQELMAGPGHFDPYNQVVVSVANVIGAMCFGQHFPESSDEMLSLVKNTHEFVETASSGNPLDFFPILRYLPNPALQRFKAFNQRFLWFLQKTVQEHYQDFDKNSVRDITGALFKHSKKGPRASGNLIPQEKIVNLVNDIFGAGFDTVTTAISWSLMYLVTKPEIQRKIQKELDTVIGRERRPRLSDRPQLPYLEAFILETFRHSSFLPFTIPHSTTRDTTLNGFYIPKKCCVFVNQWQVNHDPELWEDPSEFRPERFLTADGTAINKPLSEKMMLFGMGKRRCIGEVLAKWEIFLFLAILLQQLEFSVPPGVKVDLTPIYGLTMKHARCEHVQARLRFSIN

[26] = Selectivity index, ratio of CC50 for human MT4 cells to EC50 for antiviral activity against HIV RES056
[27] = biological target: Human immunodeficiency virus type 1 reverse transcriptase (Human immunodeficiency virus 1, UniProt Q72547); assay: Inhibition of wild type HIV-1 reverse transcriptase
[28] = system: Human immunodeficiency virus 1; assay: Potency index, ratio of (E)-3-[3,5-dimethyl-4-[2-[4-[(4-methylsulfonylpiperazin-1-yl)methyl]anilino]pyrimidin-4-yl]oxy-phenyl]prop-2-enenitrile EC50 to test compound EC50 for antiviral activity against HIV1 IIIB; format: functional
[29] = Cmax in Sprague-Dawley rat at 2 mg/kg, iv; format: ADME, organism-based; settings: in vivo
[30] = system: Human immunodeficiency virus 1; assay: Antiviral activity against HIV1 harboring Y188L mutant infected in MT4 cells; format: functional, organism-based; settings: Human immunodeficiency virus 1, MT4

Cytochrome P450 2D6, sequence (P10635 whole entry): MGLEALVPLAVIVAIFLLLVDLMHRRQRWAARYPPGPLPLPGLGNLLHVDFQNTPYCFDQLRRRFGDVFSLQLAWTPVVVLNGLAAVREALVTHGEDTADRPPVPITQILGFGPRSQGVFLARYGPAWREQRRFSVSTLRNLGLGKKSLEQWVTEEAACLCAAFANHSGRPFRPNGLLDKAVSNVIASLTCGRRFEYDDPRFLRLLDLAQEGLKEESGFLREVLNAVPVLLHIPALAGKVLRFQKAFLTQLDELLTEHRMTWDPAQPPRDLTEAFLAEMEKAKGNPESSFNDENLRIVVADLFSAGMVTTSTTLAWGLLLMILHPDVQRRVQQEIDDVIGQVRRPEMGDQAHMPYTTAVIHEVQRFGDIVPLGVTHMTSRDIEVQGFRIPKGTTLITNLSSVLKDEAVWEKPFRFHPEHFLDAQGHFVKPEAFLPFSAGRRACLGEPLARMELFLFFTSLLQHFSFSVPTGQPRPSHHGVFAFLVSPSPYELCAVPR
Cytochrome P450 3A4, sequence (P08684 whole entry): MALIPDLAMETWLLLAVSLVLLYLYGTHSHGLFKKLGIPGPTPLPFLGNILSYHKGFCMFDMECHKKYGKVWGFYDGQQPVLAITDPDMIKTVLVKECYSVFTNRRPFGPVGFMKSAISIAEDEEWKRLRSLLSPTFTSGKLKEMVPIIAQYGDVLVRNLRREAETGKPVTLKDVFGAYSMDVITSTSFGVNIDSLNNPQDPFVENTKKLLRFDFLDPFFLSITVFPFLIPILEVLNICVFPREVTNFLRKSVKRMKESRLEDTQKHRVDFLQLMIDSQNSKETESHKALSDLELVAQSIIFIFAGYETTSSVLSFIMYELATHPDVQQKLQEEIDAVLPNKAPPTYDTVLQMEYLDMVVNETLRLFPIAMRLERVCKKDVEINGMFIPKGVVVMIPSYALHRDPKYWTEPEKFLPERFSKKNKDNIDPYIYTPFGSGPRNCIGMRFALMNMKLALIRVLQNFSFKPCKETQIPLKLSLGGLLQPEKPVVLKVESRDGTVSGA
Cytochrome P450 2C9, sequence (P11712 whole entry): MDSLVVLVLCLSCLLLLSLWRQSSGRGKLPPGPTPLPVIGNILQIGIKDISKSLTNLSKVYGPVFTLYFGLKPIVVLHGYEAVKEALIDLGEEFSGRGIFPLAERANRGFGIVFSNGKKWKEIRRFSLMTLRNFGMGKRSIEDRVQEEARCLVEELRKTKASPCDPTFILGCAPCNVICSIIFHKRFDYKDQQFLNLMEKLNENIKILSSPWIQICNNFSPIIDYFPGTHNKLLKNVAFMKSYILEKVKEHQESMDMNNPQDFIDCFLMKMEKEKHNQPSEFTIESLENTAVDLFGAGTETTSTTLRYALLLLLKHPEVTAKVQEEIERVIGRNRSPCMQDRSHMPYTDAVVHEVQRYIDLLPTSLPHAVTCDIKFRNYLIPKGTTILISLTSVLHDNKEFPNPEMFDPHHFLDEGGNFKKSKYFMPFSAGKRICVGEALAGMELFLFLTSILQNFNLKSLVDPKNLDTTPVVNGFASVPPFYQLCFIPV
Cytochrome P450 2C19, sequence (P33261 whole entry): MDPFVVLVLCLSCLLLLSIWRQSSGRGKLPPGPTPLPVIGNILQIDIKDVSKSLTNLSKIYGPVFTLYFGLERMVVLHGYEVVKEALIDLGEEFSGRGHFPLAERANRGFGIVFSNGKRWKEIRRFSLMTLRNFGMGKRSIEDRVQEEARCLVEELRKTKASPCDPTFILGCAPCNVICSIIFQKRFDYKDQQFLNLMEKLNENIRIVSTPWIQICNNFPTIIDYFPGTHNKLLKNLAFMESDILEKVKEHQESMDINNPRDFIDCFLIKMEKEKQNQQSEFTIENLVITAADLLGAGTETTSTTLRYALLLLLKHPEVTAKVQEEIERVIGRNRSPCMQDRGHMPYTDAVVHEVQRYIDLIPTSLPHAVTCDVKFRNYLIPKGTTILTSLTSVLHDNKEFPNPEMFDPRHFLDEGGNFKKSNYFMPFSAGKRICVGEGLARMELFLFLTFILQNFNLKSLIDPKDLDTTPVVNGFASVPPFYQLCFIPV

## Cc1cc(/C=C/C#N)cc(C)c1Oc1ccnc(Nc2ccc(N3CCS(=O)(=O)CC3)c(F)c2)n1
[1]
  EC50: 0.008 µM
[2]
  EC50: 0.18 µM
[3]
  Ratio EC50: 3.3
[4]
  AUC(0-t): 297 ng·h/mL
[5]
  EC50: 0.006 µM
[6]
  Ratio EC50: 3.7
[7]
  EC50: 0.001 µM
[8]
  selectivity ratio: 15500
Cytochrome P450 3A4
  IC50: > 100 µM
[9]
  half-life: 6.59 h
[10]
  EC50: 0.005 µM
[11]
  Ratio EC50: 5490
[12]
  AUC(0-inf): 316 ng·h/mL
Cytochrome P450 2D6
  IC50: 14.8 µM
[13]
  Ratio EC50: 3.9
[14]
  CC50: 15.8 µM
[15]
  Ratio EC50: 10
[16]
  Vd: 60.1 L/kg
[17]
  Ratio EC50: 190
[18]
  Ratio EC50: 3.1
[19]
  Ratio EC50: 10.9
[20]
  Ratio EC50: 3.4
[21]
  Ratio EC50: 32
Cytochrome P450 2C9
  IC50: 5.57 µM
Cytochrome P450 2C19
  IC50: 5.28 µM
[22]
  EC50: 0.024 µM
[23]
  clearance: 106 mL/min/kg
[24]
  EC50: 0.001 µM
[25]
  Ratio EC50: 10
Cytochrome P450 1A2
  IC50: 21.2 µM
[26]
  selectivity ratio: 86
[27]
  IC50: 0.023 µM
[28]
  Ratio EC50: 2.7
[29]
  Cmax: 390 ng/mL
[30]
  EC50: 1.17 µM

Reference: ChEMBL document CHEMBL5620408, “Discovery of novel diarypyrimidine derivatives bearing six-membered non-aromatic heterocycles as potent HIV-1 NNRTIs with improved anti-resistance and drug-like profiles” (Eur J Med Chem, 2023)
